Data: patent US20110237566A1, “Therapeutic Macrolide Compounds and Their Use” (MERLION PHARMACEUTICALS PTE LTD, priority 2008, published 2011)

system: A549 human alveolar epithelial cell; test: Growth inhibition (cytotoxicity), A549 assay, Cell Titer Glo; format: cell-based; settings: A549, 72 h, A549 cells, 72 hour incubation
Procedure: The cytotoxicity of each of the MC compounds as described herein was evaluated in the following cell types: A549 human alveolar epithelial cell, PC3 human prostate carcinoma cell, COLO205 human colon adenocarcinoma cell, HEPG2 human hepatoma, OVCAR3 human ovary adenocarcinoma cell, and HL60 human acute myelocytic leukemia (AML) cell.
A549, PC3, COLO205 and HEPG2 cells were cultured in DMEM (Invitrogen Corporation) with 10% fetal bovine serum, whereas OVCAR3 and HL60 were cultured in the same medium but with 20% fetal bovine serum. For cytotoxocoty measurements the cells were seeded in 96 or 384 well tissue culture treated microtitre plates overnight. Compounds were diluted in appropriate buffers and added to the cells the next day. Following a further 72 hour incubation, cell viability was determined using Cell Titer Glo (Promega Corporation) according to the manufacturers' instructions, and the luminescence measured in Luminoskan Ascent (Thermo Fisher Scientific Inc.).

SMILES | IC50 [nM]
CC[C@H](OC)[C@@H](C)[C@H]1O[C@@H]1C1C(Cc2ccccc2)C(=O)OC1(C)/C=C/C=C(\C)C1OC(=O)C[C@H](O)CC[C@@](C)(O)[C@@H](OC(C)=O)/C=C/[C@@H]1C (single isomer, unassigned) [MC-012a] | ≤ 1000
CC[C@H](OC)[C@@H](C)[C@H]1O[C@@H]1C(NCCc1ccc(Cl)cc1Cl)C(C)(O)/C=C/C=C(\C)C1OC(=O)C[C@H](O)CC[C@@](C)(O)[C@@H](OC(C)=O)/C=C/[C@@H]1C (single isomer, unassigned) [MC-017b] | ≤ 1000
CC[C@H](OC)[C@@H](C)[C@H]1O[C@@H]1C(NCc1c(Cl)cccc1Cl)C(C)(O)/C=C/C=C(\C)C1OC(=O)C[C@H](O)CC[C@@](C)(O)[C@@H](OC(C)=O)/C=C/[C@@H]1C (single isomer, unassigned) [MC-018a] | ≤ 1000
CC[C@H](OC)[C@@H](C)[C@H]1O[C@@H]1C(NCc1cccc(Cl)c1)C(C)(O)/C=C/C=C(\C)C1OC(=O)C[C@H](O)CC[C@@](C)(O)[C@@H](OC(C)=O)/C=C/[C@@H]1C (single isomer, unassigned) [MC-027a] | ≤ 1000
CC[C@H](OC)[C@@H](C)[C@H]1O[C@@H]1C(NCc1ccc(N2CCCNCC2)cc1)C(C)(O)/C=C/C=C(\C)C1OC(=O)C[C@H](O)CC[C@@](C)(O)[C@@H](OC(C)=O)/C=C/[C@@H]1C (single isomer, unassigned) [MC-041a] | ≤ 1000
CC[C@H](OC)[C@@H](C)[C@H]1O[C@@H]1C(NCc1ccc(NC2CC2)cc1)C(C)(O)/C=C/C=C(\C)C1OC(=O)C[C@H](O)CC[C@@](C)(O)[C@@H](OC(C)=O)/C=C/[C@@H]1C (single isomer, unassigned) [MC-044a] | ≤ 1000
CC[C@H](OC)[C@@H](C)[C@H]1O[C@@H]1C(N(CCO)Cc1ccc2ccccc2c1)C(C)(O)/C=C/C=C(\C)[C@H]1OC(=O)C[C@H](O)CCC(C)(O)[C@@H](OC(C)=O)/C=C/[C@@H]1C (stereo in doubt) [MC-051] | ≤ 1000
CC[C@H](OC)[C@@H](C)[C@H]1O[C@@H]1C(N(CCO)Cc1ccc(C(F)(F)F)cc1)C(C)(O)/C=C/C=C(\C)[C@H]1OC(=O)C[C@H](O)CCC(C)(O)[C@@H](OC(C)=O)/C=C/[C@@H]1C (stereo in doubt) [MC-053] | ≤ 1000
CC[C@H](OC)[C@@H](C)[C@H]1O[C@@H]1C(NCc1ccccc1)C(C)(/C=C/C=C(\C)[C@H]1OC(=O)C[C@H](O)CCC(C)(O)[C@@H](OC(C)=O)/C=C/[C@@H]1C)NCc1ccccc1 (stereo partly shown) [MC-001] | ≤ 1000
CC[C@H](OC)[C@@H](C)[C@H]1O[C@@H]1C(NCc1ccc(N2CC(C)OC(C)C2)cc1)C(C)(O)/C=C/C=C(\C)C1OC(=O)C[C@H](O)CC[C@@](C)(O)[C@@H](OC(C)=O)/C=C/[C@@H]1C (stereo partly shown) [MC-042c] | ≤ 1000
CC[C@H](OC)[C@@H](C)[C@H]1O[C@@H]1C(NCc1ccc2[nH]ccc2c1)C(C)(O)/C=C/C=C(\C)C1OC(=O)C[C@H](O)CC[C@@](C)(O)[C@@H](OC(C)=O)/C=C/[C@@H]1C (stereo partly shown) [MC-043c] | ≤ 1000
CC[C@H](OC)[C@@H](C)[C@H]1O[C@@H]1C(N(CCCO)Cc1ccc(Cl)cc1)C(C)(O)/C=C/C=C(\C)[C@H]1OC(=O)C[C@H](O)CC[C@@](C)(O)[C@@H](OC(C)=O)/C=C/[C@@H]1C (stereo partly shown) [MC-045] | ≤ 1000
CC[C@H](OC)[C@@H](C)[C@H]1O[C@@H]1C(NS(=O)(=O)c1ccc(F)c(F)c1)C(C)(O)/C=C/C=C(\C)C1OC(=O)C[C@H](O)CCC(C)(O)[C@@H](OC(C)=O)/C=C/[C@@H]1C (stereo partly shown) [MC-58b] | ≤ 1000
